Data set [1] deals with SARS-CoV. The data set can be described thus: microbe, parasite or virus in culture. It is filed as cell-based.
The test system of data set [2] is SARS-CoV. Format: cell-based.
For data set [3], the system named is adenovirus type 5 expressing EGFP. Format: cell-based.
Data set [4] has as its system vaccinia virus (WR). It is filed as cell-based.
The subject of data set [5] is vaccinia virus (WR). It is filed as cell-based. The source holds these as a separate data set.
Data set [6] concerns the target H1L phosphatase (GST-H1L fusion protein) (Vaccinia virus, UniProt P07239). The data set can be described thus: biochemical.
Data set [7] concerns West Nile Virus. It is filed as cell-based.
The test system of data set [8] is Ebola. Format: cell-based.
Data set [9] relates to Adenovirus. Format: cell-based.
For data set [10], the system named is Vero cells.
A short description of data set [11]: in vitro. Particulars: African green monkey.
The test system of data set [12] is SARS-CoV. Particulars: cited from earlier work.

Values after ≈ are worked out from the molar mass of the structure shown. Like-named read-outs stand apart in the source and are kept apart here.

With `O=C(O)C1=CC(=C(c2ccc(O)c(C(=O)O)c2)c2ccc(O)c(C(=O)O)c2)C=CC1=O` [ATA, aurintricarboxylic acid], in data set [1], the “inhibition of virus replication compared to untreated controls” value was ≤ 1000 fold and the “viral replication level lower than control” value was determined as 10 times. The EC50 in [1] (Severe acute respiratory syndrome coronavirus, Vero) amounted to 0.2 mg/mL (≈ 0.474 mM). Also, in [2], the “inhibition of virus RNA replication” value is “more than 1,000 fold”, the “potency of ATA relative to interferon α as anti-SARS-CoV agent” value is given as “about 10 times” and the “potency of ATA relative to interferon β as anti-SARS-CoV agent” value is recorded as ~100 times. Further, in data set [3], the “inhibition of EGFP expression by adenovirus” value is given as “No significant inhibition”. Also, the “lowest drug concentration at which block in vaccinia replication was evident” value in data set [4] stood at 25 µg/mL. Moreover, in data set [5], the “plaque count (peak viral load)” value was 616 pfu/mL and the “viral count in treated sample as share of untreated control” value is given as 0.00026%. Also, the midpoint of inhibition in data set [6], the IC50, lay at 16 µM. For the same compound, in data set [7], the “inhibition of West Nile Virus” value stood at 10000 fold. Also, the “effect on Ebola” value in data set [8] was “no effect”. Further, the “effect on Adenovirus” value in data set [9] was “no effect”. The “toxicity associated with treatment” value in data set [10] was “little toxicity”. This compound registered a CC50 in data set [11] of 37.5 mg/mL (≈ 88.8 mM).

On to `CC1(C)[C@@H](O[C@H]2O[C@H](C(=O)O)[C@@H](O)[C@H](O)[C@H]2O[C@@H]2O[C@H](C(=O)O)[C@@H](O)[C@H](O)[C@H]2O)CC[C@]2(C)[C@H]3C(=O)C=C4[C@@H]5C[C@@](C)(C(=O)O)CC[C@]5(C)CC[C@@]4(C)[C@]3(C)CC[C@@H]12` [glycyrrhizin], for which, in data set [12], the “inhibition effect on SARS-CoV replication (logs)” value is on record as “two logs or less”.

Take `Cc1c(O)cccc1C(=O)N[C@@H](CSc1ccccc1)[C@H](O)CN1C[C@H]2CCCC[C@H]2C[C@H]1C(=O)NC(C)(C)C` [nelfinavir]: the “inhibition effect on SARS-CoV replication (logs)” value in data set [12] is recorded as “two logs or less”.

With `NC(=O)c1ncn([C@@H]2O[C@H](CO)[C@@H](O)[C@H]2O)n1` [ribavarin], the “effect against SARS-CoV replication” value in data set [12] is “little effect”.

As to IFNα, the EC50 in data set [1] turned out to be 500 IU/ml. In addition, in [2], the “inhibition effect with pre-treatment compared with samples without pre-treatment” value is listed as “about the same” and the “inhibition of virus RNA replication” value came to 100 fold. Moreover, the CC50 in [10] is 15000 IU/ml.

Values taken from patent publication US20110112195A1 (priority 2004, published 2011).
